Read-outs that look alike come from different tables or passages of the source.
Columns and labels:
[1] = system: Bacillus cereus; assay: In vitro disc diffusion assay, ZOI (Example 3); type: cell-based; conditions: 6 mm diameter discs; for Zone of Inhibition: Bacillus cereus; for ZOI: B. cereus
Method: (§1) Sterile assay discs (6 mm diameter) were obtained from VWR Whatman and antibiotic assay discs (6 mm diameter) containing getamicin (10 μg/disc) and the combination drug sulfamethoxazole 23.75 μg/disc and trimethoprim 1.25 μg/disc were obtained from Becton, Dickinson and Company (USA). Dimethyl sulfoxide (DMSO) for microbial experiments was BioReagent™ grade and was purchased from Sigma-Aldrich. The nutrient broth and Müller-Hinton agar was purchased from Becton, Dickinson and Company (USA). Bacillus cereus, Pseudomonas aeruginosa (#27853), Klebsiella pneumonia (#13883), Proteus vulgaris (#13315), Staphylococcus aureus (#25923) and Escherichia coli (#25922) strains were obtained from the American Type Culture Collection (ATCC). All materials in contact with antimicrobial matter was treated for 40 min at 121° C. and 20 psi in a biohazard autoclave bag prior to waste disposing or washing. McFarland turbity standards containing barium sulfate were obtained from bioMérieux.
(§2) The growth medium was prepared by addition of Müller-Hinton agar (38 g) to 1 L distilled water under vigorous stirring and boiled for 10 min until complete dissolution. After cooling to 25° C., the pH value of the medium was 7.3±0.1. The medium was sterilized in an autoclave at 121° C. for 15 min at 20 psi, cooled to 45-50° C. and dispended into sterile Petri dishes on a leveled, horizontal surface to give uniform depth. Stock solutions of the microorganisms were incubated at 37° C. for 24 h and the turbidity of the microbial colonies were adjusted visually with sterile saline (0.85% w/v NaCl) to 0.5 McFarland standards. Within 15 min after adjusting the turbidity of the suspensions, the Petri dishes were inoculated using sterile cotton buds. The prepared antibiotic assay discs were placed on the surface of the seeded Müller-Hinton agar using flame sterilized forceps.
(§3) Stock solutions of compounds and the Cu complexed compounds were made in DMSO and were micropipetted onto the discs for 25 to 200 μg compound/disc. The discs were dried at ambient temperature for 30-50 min before placement onto the seeded Petri dishes which were then incubated at 37° C. for 24 h. Averaged inhibition zone measurements (mm) have an accuracy of ±0.5 mm; adjacent overlapping ZOI were determined using radii measurements.

[2] = system: Staphylococcus aureus (#25923); assay: In vitro disc diffusion assay, ZOI (Example 3); type: cell-based; conditions: 6 mm diameter discs; for Zone of Inhibition: Staphylococcus aureus; for ZOI: S. aureus
Method: as §1, §2, §3

[3] = system: B. cereus; assay: Disc diffusion zone of inhibition (Example 2); type: cell-based, Bacillus cereus; conditions: Bacillus cereus; for zone of inhibition at 200 µg/disc: 200 μg/disc
Method: as §2, with “turbidity of these microbial colony” for “turbidity of the microbial colonies”, “these microbial colony were adjusted” for “the microbial colonies were adjusted”, “0.5 McFarland standards (bioMerieux, SA (France) they are made from barium sulfate (BaSO4). Within 15” for “0.5 McFarland standards. Within 15”
(§4) Stock solutions of compounds of Formula I, Ia, Ib and Formula II, IIa, pharmaceutically acceptable salts thereof, and metal complexes thereof were made in DMSO and were micropipetted onto the discs for 25 to 200 μg/disc. The discs were dried at ambient temperature for 30-50 min before placement onto the seeded Petri dishes which were then incubated at 37° C. for 24 h. Averaged inhibition zone diameters measurements (mm) have an accuracy of ±0.5 mm; adjacent overlapping ZOI were determined using radii measurements. Antibiotic disc like (sulfamethoxazole 23.75 μg trimethoprim 1.25 μg)/disc, Gentamicin 10 μg/disc and DMSO were used as positive and negative standards (control).
(§5) Antimicrobial test was carried out to evaluate the efficacy of compounds of Formula I, Ia, Ib and Formula II, IIa, pharmaceutically acceptable salts thereof, and metal complexes thereof, as well as control tests with control compounds, against six major pathogenic bacteria namely Bacillus cereus, Pseudomonas aeruginosa, Klebsiella pneumonia, Proteus vulgaris, Staphylococcus aureus and Escherichia coli.

[4] = system: S. aureus; assay: Disc diffusion zone of inhibition (Example 2); type: cell-based, Staphylococcus aureus; conditions: Staphylococcus aureus
Method: as §2, with “turbidity of these microbial colony” for “turbidity of the microbial colonies”, “these microbial colony were adjusted” for “the microbial colonies were adjusted”, “0.5 McFarland standards (bioMerieux, SA (France) they are made from barium sulfate (BaSO4). Within 15” for “0.5 McFarland standards. Within 15”
as §4, §5

[5] = DPPH antioxidant activity test; conditions: 50 μg compound in 3 mL methanol; DPPH 150 μL 1 mM; 30 min, 25 °C; absorbance 517 nm
Method: In addition to antibacterial properties, antioxidant activity was assessed in the compounds of Formula I and II and metal complexes thereof as antioxidant compounds play an important role in remediating the toxic effects of reactive oxygen species and other free radicals. The main characteristic of an antioxidant compound is its ability to trap free radicals. Highly reactive free radicals and oxygen species are present in biological systems from a wide variety of sources. Free radical damage is known to occur during bacterial and other microbial infections. Free radicals are produced by cells of the immune system during an active infection, and generally as a result of the inflammatory processes.
DPPH (2,2-diphenyl-1-picryl-hydrazyl, 150 μL, 1 mM solution in methanol) was added to 3 mL methanol in a cuvette (0.5 in diameter) and UV-vis absorption recorded at 517 nm for baseline reading. In a cuvette, DPPH (150 μL, 1 mM solution in methanol) was added to a solution containing compound in 3 mL methanol. The reaction was allowed to stir at 25±1° C. for 30 min under exclusion of light. Absorbance was recorded at 517 nm against reference cuvette filled with methanol.

[6] = system: E. coli; assay: Disc diffusion zone of inhibition (Example 2); type: cell-based, Escherichia coli; conditions: Escherichia coli, 50 μg/disc
Method: as §2, with “turbidity of these microbial colony” for “turbidity of the microbial colonies”, “these microbial colony were adjusted” for “the microbial colonies were adjusted”, “0.5 McFarland standards (bioMerieux, SA (France) they are made from barium sulfate (BaSO4). Within 15” for “0.5 McFarland standards. Within 15”
as §4, §5

[7] = system: P. aeruginosa; assay: Disc diffusion zone of inhibition (Example 2); type: cell-based, Pseudomonas aeruginosa; conditions: Pseudomonas aeruginosa, 50 μg/disc
Method: as §2, with “turbidity of these microbial colony” for “turbidity of the microbial colonies”, “these microbial colony were adjusted” for “the microbial colonies were adjusted”, “0.5 McFarland standards (bioMerieux, SA (France) they are made from barium sulfate (BaSO4). Within 15” for “0.5 McFarland standards. Within 15”
as §4, §5

[8] = system: P. vulgaris; assay: Disc diffusion zone of inhibition (Example 2); type: cell-based, Proteus vulgaris; conditions: Proteus vulgaris, 50 μg/disc
Method: as §2, with “turbidity of these microbial colony” for “turbidity of the microbial colonies”, “these microbial colony were adjusted” for “the microbial colonies were adjusted”, “0.5 McFarland standards (bioMerieux, SA (France) they are made from barium sulfate (BaSO4). Within 15” for “0.5 McFarland standards. Within 15”
as §4, §5

[9] = system: K. pnemonia; assay: Disc diffusion zone of inhibition (Example 2); type: cell-based, Klebsiella pneumonia; conditions: Klebsiella pneumoniae, 50 μg/disc
Method: as §2, with “turbidity of these microbial colony” for “turbidity of the microbial colonies”, “these microbial colony were adjusted” for “the microbial colonies were adjusted”, “0.5 McFarland standards (bioMerieux, SA (France) they are made from barium sulfate (BaSO4). Within 15” for “0.5 McFarland standards. Within 15”
as §4, §5

Compound	Zone of Inhibition ([1]; 6.25 μg Cu/disc)	Zone of Inhibition ([1]; 12.5 μg Cu/disc)	Zone of Inhibition ([1]; 25 μg Cu/disc)	Zone of Inhibition ([2]; 6.25 μg Cu/disc)	Zone of Inhibition ([2]; 12.5 μg Cu/disc)	Zone of Inhibition ([2]; 25 μg Cu/disc)	% Antiox-Act [5]	also measured
2-(methylthio)-N-(2-thienylmethylene)-benzenamine copper (II) bromide [ECPP-129]	0 mm	0.5 mm	9 mm	5 mm	7 mm	10 mm		
Nc1ccccc1SCc1ccccc1CSc1ccccc1N [α,α′-bis((o-aminophenyl)thio)-ortho-xylene]							60.8%	zone of inhibition at 200 µg/disc [3]: 8 mm; zone of inhibition at 200 µg/disc [4]: 7 mm
Nc1ccccc1SCc1ccccc1CSc1ccccc1N [Compound L2]								ZOI ([1]; 200 μg/disc): 2 mm; ZOI ([2]; 200 μg/disc): 1.5 mm
CC(=O)[O-].CC(=O)[O-].Nc1ccccc1SCc1ccccc1CSc1ccccc1N.[Cu+2] [α,α′-bis((o-aminophenyl)thio)-ortho-xylene-copper (II) acetate]							63.5%	
Nc1ccccc1SCc1ccc(CSc2ccccc2N)cc1 [Compound L1]								ZOI ([1]; 50 μg/disc): 1.5 mm; ZOI ([1]; 100 μg/disc): 5 mm; ZOI ([1]; 200 μg/disc): 6.3 mm; ZOI ([2]; 50 μg/disc): 2.5 mm; ZOI ([2]; 100 μg/disc): 3.5 mm; ZOI ([2]; 200 μg/disc): 5.5 mm
Nc1ccccc1SCc1ccccc1CSc1ccccc1N.[Cl][Cu][Cl] [α,α′-bis((o-aminophenyl)thio)-ortho-xylene-copper (II) chloride]							56.1%	
2-(methylthio)-N-(2-pyridylmethylene)-benzenamine copper (I) bromide [ECPP-141]	0 mm	0 mm	2 mm	0.5 mm	2 mm	5 mm		
O=Cc1ccccn1 [2-pyridine carboxaldehyde]							67.0%	zone of inhibition at 50 µg/disc ([3]; 50 μg/disc): 20 mm; zone of inhibition at 50 µg/disc [6]: 17 mm; zone of inhibition at 50 µg/disc [7]: 24 mm; zone of inhibition at 50 µg/disc [8]: 22 mm; zone of inhibition at 50 µg/disc [9]: 23 mm; zone of inhibition at 50 µg/disc ([4]; S. aureus, 50 μg/disc): 15 mm
C(=N\c1ccccc1SCc1ccccc1CSc1ccccc1/N=C/c1ccccn1)/c1ccccn1 [Bis [N,N′-(2-pyridinyl methylidene)]α,α′-bis((o-aminophenyl)thio)-ortho-xylene]							61.3%	zone of inhibition at 200 µg/disc [3]: 7 mm; zone of inhibition at 200 µg/disc ([4]; S. aureus, 200 μg/disc, read-out: Zone of inhibition): 7 mm
2-(methylthio)-N-(2-pyridylmethylene)-benzenamine copper (II) bromide [ECPP-145]	0 mm	0 mm	0.5 mm	0 mm	1 mm	4 mm		

— US20140348880A1, “Ortho-Aminothiophenol Compounds and Uses Thereof” (Cape Breton University, priority 2013, published 2014)
